Results: patent US20260130858A1, “LYOPHILIZED SOVATELTIDE-BASED INJECTABLE FORMULATION AND A PROCESS FOR PREPARATION” (PHARMAZZ, INC., priority 2023, published 2026)

What was measured:
[1] = test system: acute cerebral ischemic stroke patients; experiment: Phase III study in acute cerebral ischemic stroke patients, modified Rankin Scale at day 90; format: in vivo, human; conditions: for Odds ratio, change in mRS of 2 or more / Odds ratio, mRS of 0-2 day 90 / Relative Risk, change in mRS of 2 or more / Relative Risk, mRS of 0-2 day 90: control vs sovateltide; for Modified Rankin Scale Day 90, mean: day 90 post-randomization; for Difference between means (B − A) ± SEM, Modified Rankin Scale Day 90: sovateltide minus control
Procedure: A prospective, multicentric, randomized phase III study was conducted in acute cerebral ischemic stroke patients aged 18 years through 78 years. Patients with radiologic confirmation of ischemic stroke could be enrolled if presenting up to 24 hours after the onset of symptoms and with a modified Rankin Score (mRS) of 3 to 4 and an NIHSS (National Institute of Health Stroke Scale) score of greater than 5. Patients with intracranial haemorrhage and those receiving endovascular therapy were excluded.
Patients were randomized in a 1:1 ratio, 80 patients to the sovateltide group and 78 patients to the control (saline) group. Every patient received the standard of care (SOC) and was followed for 90 days. The study drug (normal saline or sovateltide (0.3 μg/kg) was administered in three doses administered as an intravenous bolus over 1 minute at an interval of 3 hours±1 hour on day 1, day 3, and day 6 (total sovateltide dose of 0.9 μg/kg/day).
The primary objectives were to determine the neurological outcome based on modified Rankin Scale (mRS) score, National Institute of Health Stroke Scale (NIHSS) score, and Barthel Index (BI) scale score from day 1 through day 90. In addition, quality-of-Life was measured by EuroQol-EQ-5D (EQ-5D) and stroke-specific quality-of-life (SSQoL) scores at 60 days and 90 days of treatment.
A total of 158 patients with acute cerebral ischemic stroke were enrolled in this test, of which 137 completed 90-day follow-up. Patients received saline (n=70; 45 male and 25 female) or sovateltide (n=67; 45 male and 22 female) within 24 hours of the onset of stroke. Patients received the investigational drug […] at 16.85±0.74 and 17.40±0.67 hours (mean±SEM, p=0.583) of stroke onset in control and sovateltide cohorts, respectively. The baseline characteristics and SOC in both cohorts were similar.

[2] = Solution stability, related substances HPLC method validation (Method 1); conditions: standard solution at 5° C.; related substances Method 1
Source text: Chromatographic Parameters for method validation of Related Substance of Sovateltide Injection (Method 1): Method-1 utilizes chromatographic conditions to separate and quantify a specific compound of interest. The analytical column used is either the Xtimate C18 Column or the ChromCore 120 C18 Column, both with dimensions of 4.6×250 mm and 5 m. A Ghost Buster Column with dimensions of 4.6×50 mm is used to detect any unexpected peaks, which are usually called ghost peaks that may interfere with the results. The flow rate is set to 0.5 mL/min, with an injection volume of 90 μL. The detection wavelength is 215 nm, and the auto sampler temperature is maintained at 5° C. The column oven temperature is set to 50° C., and the run time for the method is 120 min. […] These parameters ensure the separation and accurate quantification of the compound in the sample.
• Mobile Phase A (KH2PO4+ Sodium Chloride in HPLC water). • Mobile Phase-B (Methanol).

[3] = with cerebrolysin, listed as sovateltide
[4] = with citicoline, listed as sovateltide
[5] = with mannitol, sovateltide group n=30
[6] = with mannitol, sovateltide group n=30, listed as sovateltide
[7] = with thrombolytics, listed as sovateltide

## succinyl-(glutamyl(9)-alanyl(11,15))-endothelin-1 (8-21) [Sovateltide]
[1]; with cerebrolysin
  Number of patients with change in mRS < 2 from day 1 to day 90: 1
  Number of patients with mRS 0-2 day 90: 11
  Number of patients with mRS > 2 day 90: 1
  Number of patients, change in mRS of 2 or more from day 1 to day 90 (column head mRS > 2): 11
  Percentage of row total, change in mRS < 2: 8.33%
  Percentage of row total, change in mRS ≥ 2: 91.67%
  Percentage of row total, mRS 0-2 day 90: 91.67%
  Percentage of row total, mRS > 2 day 90: 8.33%
  Odds ratio, change in mRS of 2 or more: 0.5455
  Odds ratio, mRS of 0-2 day 90: 0.8462
  Relative Risk, change in mRS of 2 or more: 0.9351
  Relative Risk, mRS of 0-2 day 90: 0.8571
  Difference between means (B − A) ± SEM, Modified Rankin Scale Day 90: −0.3214 ± 0.3517
[1]; with cerebrolysin, sovateltide group n=12
  Modified Rankin Scale Day 90, mean: 0.7500
[1]; [3]
  Number of patients with mRS 0-2 day 90: similar
  Number of patients, change in mRS of 2 or more from day 1 to day 90 (column head mRS > 2): similar
[1]; with citicoline
  Number of patients with change in mRS < 2 from day 1 to day 90: 5
  Number of patients with change in mRS ≥ 2 from day 1 to day 90: 18
  Number of patients with mRS 0-2 day 90: 21
  Number of patients with mRS > 2 day 90: 3
  Percentage of row total, change in mRS < 2: 21.74%
  Percentage of row total, change in mRS ≥ 2: 78.26%
  Percentage of row total, mRS 0-2 day 90: 87.50%
  Percentage of row total, mRS > 2 day 90: 12.50%
  Odds ratio, change in mRS of 2 or more: 0.3283
  Odds ratio, mRS of 0-2 day 90: 4.500
  Relative Risk, change in mRS of 2 or more: 0.6921
  Relative Risk, mRS of 0-2 day 90: 3.130
  Difference between means (B − A) ± SEM, Modified Rankin Scale Day 90: −0.7917 ± 0.3638
[1]; with citicoline, sovateltide group n=24
  Modified Rankin Scale Day 90, mean: 1.208
[1]; with citicoline, sovateltide group n=24, listed as sovateltide
  Modified Rankin Scale Day 90, mean: significantly lower
[1]; [4]
  Number of patients with change in mRS ≥ 2 from day 1 to day 90: significantly more
  Number of patients with mRS 0-2 day 90: significantly more
[1]; with mannitol
  Percentage of row total, change in mRS < 2: 36.67%
  Percentage of row total, change in mRS ≥ 2: 63.33%
  Percentage of row total, mRS 0-2 day 90: 63.33%
  Percentage of row total, mRS > 2 day 90: 36.67%
  Odds ratio, change in mRS of 2 or more: 0.3184
  Odds ratio, mRS of 0-2 day 90: 2.735
  Relative Risk, change in mRS of 2 or more: 0.5603
  Relative Risk, mRS of 0-2 day 90: 1.672
  Difference between means (B − A) ± SEM, Modified Rankin Scale Day 90: −0.7086 ± 0.3316
[1]; [5]
  Modified Rankin Scale Day 90, mean: 2.033
  Number of patients with change in mRS < 2 from day 1 to day 90: 11
  Number of patients with change in mRS ≥ 2 from day 1 to day 90: 19
  Number of patients with mRS 0-2 day 90: 19
  Number of patients with mRS > 2 day 90: 11
[1]; [6]
  Modified Rankin Scale Day 90, mean: significantly lower
  Number of patients with change in mRS ≥ 2 from day 1 to day 90: significantly more
  Number of patients with mRS 0-2 day 90: significantly more
[1]; with thrombolytics
  Number of patients with change in mRS < 2 from day 1 to day 90: 3
  Number of patients with change in mRS ≥ 2 from day 1 to day 90: 6
  Number of patients with mRS 0-2 day 90: 6
  Number of patients with mRS > 2 day 90: 3
  Percentage of row total, change in mRS < 2: 33.33%
  Percentage of row total, change in mRS ≥ 2: 66.67%
  Percentage of row total, mRS 0-2 day 90: 66.67%
  Percentage of row total, mRS > 2 day 90: 33.33%
  Odds ratio, change in mRS of 2 or more: 0.7500
  Odds ratio, mRS of 0-2 day 90: 1.333
  Relative Risk, change in mRS of 2 or more: 0.9000
  Relative Risk, mRS of 0-2 day 90: 1.200
  Difference between means (B − A) ± SEM, Modified Rankin Scale Day 90: −0.2833 ± 0.6321
[1]; with thrombolytics, sovateltide group n=9
  Modified Rankin Scale Day 90, mean: 1.667
[1]; [7]
  Number of patients with change in mRS ≥ 2 from day 1 to day 90: similar
  Number of patients with mRS 0-2 day 90: similar
[2]
  Time standard solution is stable: up to 60 Hours
